Data from the supplement of paper PMC10307832.

Assays:
Experiment in all cases: relative viability (nuclei count vs DMSO), 5 days (fraction); higher = more cells survive
ABC-1 = test system: ABC-1
Outline: (§1)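 A single step with final 0.05% Triton X-100, 1% formaldehyde and 1 ug/ml Hoechst fixed the cells and stained nuclei 5 days after treatment. Lung cancer cell lines in 1536-well plates had been treated by pin tool the day after seeding with one drug alone or a fixed anchor-drug dose plus five library-drug doses (not always all listed) in √10 steps, and nuclei were counted on 4× images. Relative viability is the ratio of nuclei in treated wells to nuclei in vehicle wells, taken as the median of duplicate plates.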

BEN = test system: BEN
Outline: as §1

EPLC-272H = test system: EPLC-272H
Outline: as §1

HCC-827 = test system: HCC-827
Outline: as §1

HOP-62 = test system: HOP-62
Outline: as §1

LU99A = test system: LU99A
Outline: as §1

NCI-H1355 = test system: NCI-H1355
Outline: as §1

NCI-H1666 = test system: NCI-H1666
Outline: as §1

NCI-H1792 = test system: NCI-H1792
Outline: as §1

NCI-H1975 = test system: NCI-H1975
Outline: as §1

NCI-H2170 = test system: NCI-H2170
Outline: as §1

NCI-H23 = test system: NCI-H23
Outline: as §1

NCI-H2405 = test system: NCI-H2405
Outline: as §1

NCI-H3122 = test system: NCI-H3122
Outline: as §1

NCI-H322M = test system: NCI-H322M
Outline: as §1

NCI-H358 = test system: NCI-H358
Outline: as §1

NCI-H520 = test system: NCI-H520
Outline: as §1

NCI-H596 = test system: NCI-H596
Outline: as §1

NCI-H647 = test system: NCI-H647
Outline: as §1

NCI-H727 = test system: NCI-H727
Outline: as §1

NCI-H838 = test system: NCI-H838
Outline: as §1

PC-14 = test system: PC-14
Outline: as §1

SW 900 = test system: SW 900
Outline: as §1

UMC-11 = test system: UMC-11
Outline: as §1

## CCCCCCCCCCCC1=C(O)C(=O)C=C(O)C1=O [Embelin] + Nc1ncn([C@H]2C[C@H](O)[C@@H](CO)O2)c(=O)n1 [Decitabine] (partner 2 µM)
ABC-1; first compound 0.08 µM
  relative viability: 1.02
ABC-1; first compound 0.8 µM
  relative viability: 1.11
ABC-1; first compound 2.53 µM
  relative viability: 1.04
ABC-1; first compound 8 µM
  relative viability: 1.12
BEN; first compound 0.08 µM
  relative viability: 0.717
BEN; first compound 0.8 µM
  relative viability: 0.813
BEN; first compound 2.53 µM
  relative viability: 0.812
BEN; first compound 8 µM
  relative viability: 0.559
EPLC-272H; first compound 0.08 µM
  relative viability: 0.363
EPLC-272H; first compound 0.8 µM
  relative viability: 0.401
EPLC-272H; first compound 2.53 µM
  relative viability: 0.355
EPLC-272H; first compound 8 µM
  relative viability: 0.367
HCC-827; first compound 0.08 µM
  relative viability: 0.336
HCC-827; first compound 0.8 µM
  relative viability: 0.333
HCC-827; first compound 2.53 µM
  relative viability: 0.38
HCC-827; first compound 8 µM
  relative viability: 0.355
HOP-62; first compound 0.08 µM
  relative viability: 0.193
HOP-62; first compound 0.8 µM
  relative viability: 0.22
HOP-62; first compound 2.53 µM
  relative viability: 0.205
HOP-62; first compound 8 µM
  relative viability: 0.19
LU99A; first compound 0.08 µM
  relative viability: 1.01
LU99A; first compound 0.8 µM
  relative viability: 1.08
LU99A; first compound 2.53 µM
  relative viability: 0.942
LU99A; first compound 8 µM
  relative viability: 0.91
NCI-H1355; first compound 0.08 µM
  relative viability: 0.333
NCI-H1355; first compound 0.8 µM
  relative viability: 0.394
NCI-H1355; first compound 2.53 µM
  relative viability: 0.421
NCI-H1355; first compound 8 µM
  relative viability: 0.358
NCI-H1666; first compound 0.08 µM
  relative viability: 0.712
NCI-H1666; first compound 0.8 µM
  relative viability: 0.812
NCI-H1666; first compound 2.53 µM
  relative viability: 0.78
NCI-H1666; first compound 8 µM
  relative viability: 0.757
NCI-H1792; first compound 0.08 µM
  relative viability: 0.603
NCI-H1792; first compound 0.8 µM
  relative viability: 0.595
NCI-H1792; first compound 2.53 µM
  relative viability: 0.615
NCI-H1792; first compound 8 µM
  relative viability: 0.519
NCI-H1975; first compound 0.08 µM
  relative viability: 0.377
NCI-H1975; first compound 0.8 µM
  relative viability: 0.432
NCI-H1975; first compound 2.53 µM
  relative viability: 0.37
NCI-H1975; first compound 8 µM
  relative viability: 0.586
NCI-H2170; first compound 0.08 µM
  relative viability: 0.514
NCI-H2170; first compound 0.8 µM
  relative viability: 0.446
NCI-H2170; first compound 2.53 µM
  relative viability: 0.506
NCI-H2170; first compound 8 µM
  relative viability: 0.456
NCI-H23; first compound 0.08 µM
  relative viability: 0.258
NCI-H23; first compound 0.8 µM
  relative viability: 0.37
NCI-H23; first compound 2.53 µM
  relative viability: 0.329
NCI-H23; first compound 8 µM
  relative viability: 0.29
NCI-H2405; first compound 0.08 µM
  relative viability: 0.764
NCI-H2405; first compound 0.8 µM
  relative viability: 0.89
NCI-H2405; first compound 2.53 µM
  relative viability: 0.738
NCI-H2405; first compound 8 µM
  relative viability: 0.703
NCI-H3122; first compound 0.08 µM
  relative viability: 0.385
NCI-H3122; first compound 0.8 µM
  relative viability: 0.446
NCI-H3122; first compound 2.53 µM
  relative viability: 0.419
NCI-H3122; first compound 8 µM
  relative viability: 0.397
NCI-H322M; first compound 0.08 µM
  relative viability: 0.603
NCI-H322M; first compound 0.8 µM
  relative viability: 0.729
NCI-H322M; first compound 2.53 µM
  relative viability: 0.813
NCI-H322M; first compound 8 µM
  relative viability: 0.754
NCI-H358; first compound 0.08 µM
  relative viability: 0.2
NCI-H358; first compound 0.8 µM
  relative viability: 0.233
NCI-H358; first compound 2.53 µM
  relative viability: 0.23
NCI-H358; first compound 8 µM
  relative viability: 0.221
NCI-H520; first compound 0.08 µM
  relative viability: 0.478
NCI-H520; first compound 0.8 µM
  relative viability: 0.558
NCI-H520; first compound 2.53 µM
  relative viability: 0.552
NCI-H520; first compound 8 µM
  relative viability: 0.441
NCI-H596; first compound 0.08 µM
  relative viability: 0.945
NCI-H596; first compound 0.8 µM
  relative viability: 0.958
NCI-H596; first compound 2.53 µM
  relative viability: 1.19
NCI-H596; first compound 8 µM
  relative viability: 1.06
NCI-H647; first compound 0.08 µM
  relative viability: 0.454
NCI-H647; first compound 0.8 µM
  relative viability: 0.379
NCI-H647; first compound 2.53 µM
  relative viability: 0.488
NCI-H647; first compound 8 µM
  relative viability: 0.277
NCI-H727; first compound 0.08 µM
  relative viability: 1.02
NCI-H727; first compound 0.8 µM
  relative viability: 0.96
NCI-H727; first compound 2.53 µM
  relative viability: 1.14
NCI-H727; first compound 8 µM
  relative viability: 0.916
NCI-H838; first compound 0.08 µM
  relative viability: 0.478
NCI-H838; first compound 0.8 µM
  relative viability: 0.485
NCI-H838; first compound 2.53 µM
  relative viability: 0.502
NCI-H838; first compound 8 µM
  relative viability: 0.321
PC-14; first compound 0.08 µM
  relative viability: 0.254
PC-14; first compound 0.8 µM
  relative viability: 0.21
PC-14; first compound 2.53 µM
  relative viability: 0.163
PC-14; first compound 8 µM
  relative viability: 0.209
SW 900; first compound 0.08 µM
  relative viability: 0.449
SW 900; first compound 0.8 µM
  relative viability: 0.402
SW 900; first compound 2.53 µM
  relative viability: 0.466
SW 900; first compound 8 µM
  relative viability: 0.454
UMC-11; first compound 0.08 µM
  relative viability: 0.616
UMC-11; first compound 0.8 µM
  relative viability: 0.608
UMC-11; first compound 2.53 µM
  relative viability: 0.631
UMC-11; first compound 8 µM
  relative viability: 0.553
